Source: patent US20030157715A1, “Modulation of chromosome function by chromatin remodeling agents” (priority 2000, published 2003)

System: homozygous bw^D/bw^D flies
Test: P31 fed to developing homozygous brown-dominant flies
Format: in vivo
Method: These experiments established a remarkable molecular interplay between the GAGAA insert of the bw^D allele and its target-compound P31.
Drug treatments of the bw^D flies were performed as for w^m4 flies except that 30 parental females were allowed to lay eggs. To obtain the heterozygous bw^D/+; st/st progeny, 30 virgin bw^D/bw^D; st/st homozygous females were mated with scarlet homozygous males for about 5 days before transferring them to experimental vials for egg laying.
The lethality of the progenies was calculated by counting the dead bodies and the total empty pupal shells. The A6 to A5 transformation was detected by bristles that form on abdominal segment A6 on males. All male adult flies obtained (˜50) were scored. Sex combs and halteres were individually inspected and photographed under the microscope (Axiophot, Zeiss) after dissecting at least 30 individuals and incubating them into 30 μl of 0.6 g/ml gum arabic; 4 g/ml chlorohydrate; 35% glycerol under a 24×24 mm coverslip as described (Ashburner, 1989). Since raising double heterozygous flies (Ubx^1/+; bw^D/+) led to lethality, we morphologically dissected eight late stage pupae after carefully removing the pupal envelope.

[1] = fly stock of r12, bw^D/bw^+, homozygous per text

## CN(C)CCCNC(=O)CCNC(=O)c1nc(NC(=O)CCNC(=O)c2nc(NC(=O)CCNC(=O)c3cc(NC(=O)c4nc(NC(=O)CCNC(=O)c5nccn5C)cn4C)cn3C)cn2C)cn1C [Compound P31, Im-β-Im-Py-β-Im-β-Im-β-Dp]
[1]
  A6 to A5: 100%
  Lethality: 66%
  Sex comb, range of teeth: 6-9
Fly stock of r12, bw^D/bw^+, text: homozygous
  Sex comb (mean): 7.2
Fly stock of r12, bw^D/bw^+, text: homozygous bw^D males
  A6 to A5, number of bristles on A6: 3-10
Homozygous bw^D
  sex comb teeth, number mostly found: 6
Homozygous bw^D flies
  progeny that died at the pupal stage: about two thirds
In vivo
  Pupae delay (hrs): ≥ 65 hrs-∞
  delay of hatching: 65 to 75 h
